{
  "source": "patent US20140134261A1",
  "about": "(priority 2012, published 2014)",
  "key": {"[1]": {"target": "μ-opiate receptor (Homo sapiens, UniProt P35372)", "sequence (P35372 whole entry)": "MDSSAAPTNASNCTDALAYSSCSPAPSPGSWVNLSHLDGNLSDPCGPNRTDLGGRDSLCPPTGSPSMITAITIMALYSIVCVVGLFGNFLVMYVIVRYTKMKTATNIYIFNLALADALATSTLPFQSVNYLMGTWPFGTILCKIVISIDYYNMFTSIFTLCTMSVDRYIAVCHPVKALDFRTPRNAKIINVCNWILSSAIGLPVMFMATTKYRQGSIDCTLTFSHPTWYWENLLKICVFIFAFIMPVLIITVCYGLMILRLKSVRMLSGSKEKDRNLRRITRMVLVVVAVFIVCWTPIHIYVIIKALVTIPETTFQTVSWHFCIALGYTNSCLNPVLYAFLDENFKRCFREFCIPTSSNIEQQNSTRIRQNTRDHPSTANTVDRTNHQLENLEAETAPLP", "conditions": "cited from earlier work"}, "[2]": {"test_system": "macrophages", "conditions": "preincubation with 10 μM; cited from earlier work"}, "[3]": {"test_system": "PC-3 prostate cancer xenografts", "conditions": "given orally; cited from earlier work"}, "[4]": {"test_system": "NF-κ-B", "conditions": "pretreatment of human myeloid ML-1a cells; cited from earlier work"}, "[5]": {"test_system": "cytochrome (CYP) enzymes present in the human liver", "conditions": "in vitro; cited from earlier work"}, "[6]": {"conditions": "1 mg/kg systemic, before cecal ligation and puncture, late sepsis period; cited from earlier work"}, "[7]": {"test_system": "Rat peritoneal macrophages", "conditions": "10 μM, pre-incubated 1 h; cited from earlier work"}, "[8]": {"conditions": "in vitro; cited from earlier work"}, "[9]": {"conditions": "humans, after ingestion of 26.6 mg of capsaicin; cited from earlier work"}, "[10]": {"target": "TRPV1 receptor (Homo sapiens, UniProt Q8NER1)", "sequence (Q8NER1 whole entry)": "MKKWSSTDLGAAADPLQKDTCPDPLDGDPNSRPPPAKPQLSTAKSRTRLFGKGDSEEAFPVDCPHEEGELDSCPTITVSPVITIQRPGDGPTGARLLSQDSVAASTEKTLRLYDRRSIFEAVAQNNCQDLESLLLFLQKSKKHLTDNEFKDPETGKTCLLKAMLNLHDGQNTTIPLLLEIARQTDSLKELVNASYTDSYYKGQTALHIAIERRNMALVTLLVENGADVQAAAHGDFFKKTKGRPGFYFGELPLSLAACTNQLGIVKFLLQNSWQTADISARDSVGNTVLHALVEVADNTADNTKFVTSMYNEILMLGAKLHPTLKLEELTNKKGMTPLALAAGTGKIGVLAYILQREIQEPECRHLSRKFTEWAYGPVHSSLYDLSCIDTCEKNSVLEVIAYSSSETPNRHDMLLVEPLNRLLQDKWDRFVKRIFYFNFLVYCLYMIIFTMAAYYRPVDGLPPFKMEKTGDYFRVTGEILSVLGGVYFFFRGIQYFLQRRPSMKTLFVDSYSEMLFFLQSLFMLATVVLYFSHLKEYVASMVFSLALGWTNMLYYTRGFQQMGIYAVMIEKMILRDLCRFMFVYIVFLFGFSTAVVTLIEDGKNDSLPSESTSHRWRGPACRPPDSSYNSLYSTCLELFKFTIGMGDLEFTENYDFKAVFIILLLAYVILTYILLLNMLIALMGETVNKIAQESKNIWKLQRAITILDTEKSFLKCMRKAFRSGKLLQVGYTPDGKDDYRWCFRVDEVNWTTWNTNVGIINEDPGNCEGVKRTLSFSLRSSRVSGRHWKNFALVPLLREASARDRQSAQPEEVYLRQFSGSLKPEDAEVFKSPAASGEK", "conditions": "cited from earlier work"}, "[11]": {"conditions": "male rats, diet with 30% lard, capsaicin at 0.14% of the diet; cited from earlier work"}},
  "note": "Like-named read-outs stand apart in the source and are kept apart here.",
  "data": [
    {"compound": "0-desmethyltramadol [Example M1]", "values": [
      {"measurement": "analgesic potency relative to the parent drug tramadol", "setting": "[1]", "result": "at least twice the analgesic potency"}
    ]},
    {"compound": "COc1cc(CNC(=O)CCCCC=CC(C)C)ccc1O", "note": "[capsaicin, 8-methyl-N-vanillyl-6-nonenamide]", "values": [
      {"measurement": "superoxide anions, hydrogen peroxide, and nitrite radical production", "setting": "[2]", "result": "completely inhibited"},
      {"measurement": "growth of xenografts as measured by size", "setting": "[3]", "result": "significantly slowed"},
      {"measurement": "TNF-mediated activation of NF-κ-B", "setting": "[4]", "result": "blocked"},
      {"measurement": "metabolism by CYP enzymes in the human liver", "setting": "[5]", "result": "metabolized rapidly"},
      {"measurement": "lipid peroxidation in various tissues, including lung and liver", "setting": "[6]", "result": "decreased"},
      {"measurement": "inhibition of incorporation of arachidonic acid into membrane lipids", "setting": "[7]", "result": 76, "unit": "%"},
      {"measurement": "inhibition of leukotriene B4", "setting": "[7]", "result": 46, "unit": "%"},
      {"measurement": "inhibition of leukotriene C4", "setting": "[7]", "result": 48, "unit": "%"},
      {"measurement": "inhibition of prostaglandin E2", "setting": "[7]", "result": 48, "unit": "%"},
      {"measurement": "metabolism in human skin", "setting": "[8]", "result": "quite slow"},
      {"measurement": "duration of pain at the site of application", "setting": "about 1 gram of 8% capsaicin ointment on forehand", "result": "~48", "unit": "h"},
      {"measurement": "burning sensation at the site of application", "setting": "about 1 gram ointment (14.25% capsaicin palmitate or 8% capsaicin) on forehand, six healthy volunteers, asked after 30 minutes", "result": "intense burning"},
      {"measurement": "duration of pain and inflammation", "setting": "application of 8% capsaicin", "result": "almost a day"},
      {"measurement": "time to intense pain at the site of application", "setting": "application of 8% capsaicin", "result": "≤ 15", "unit": "min"},
      {"measurement": "burning pain at the site of application", "setting": "topical ointment, about 14.25% capsaicin palmitate (about 8% of capsaicin) or 8% capsaicin, no topical anesthetic", "result": "intense pain"},
      {"measurement": "Cmax", "setting": "[9]", "result": "2.5 (0.1) ng ml^−1"},
      {"measurement": "Tmax", "setting": "[9]", "result": "47.1 (2.0) min"},
      {"measurement": "affinity as exogenous agonist for the TRPV1 receptor", "setting": "[10]", "result": "low nanomolar affinity"},
      {"measurement": "serum triglyceride levels versus high-fat diet without capsaicin", "setting": "[11]", "result": "significantly lower"}
    ]},
    {"compound": "Palmitoyl Ester of Capsaicin USP (Formula I, R=—(CH2)14—CH3) [capsaicin palmitate]", "values": [
      {"measurement": "burning pain at the site of application", "setting": "human, in vivo", "result": "almost no burning pain"},
      {"measurement": "burning sensation at the site of application", "setting": "human, in vivo", "result": "did not cause any burning sensation"}
    ]}
  ]
}
